Data: US20030078304A1, “Method of inhibiting the expression of inflammatory cytokines and chemokines” (priority 2000, published 2003)

Tested on: NF-κB
Experiment: NF-κB-dependent luciferase reporter gene assay in UV-C exposed HeLa cells
Assay type: cell-based, human
Procedure: HeLa cells were transfected with a NF-κB-dependent reporter gene and exposed to UV-C 24 hours after transfection. Pretreatment with Astaxanthin was done 3 hours prior to irradiation, where indicated. Cells were harvested and luciferase activity was measured 14-18 hours following exposure. The ratio between Firefly and Renilla luciferase activity is represented as fold activation over the activity in unstimulated control cells. The standard error is based on two identical experiments.
The human […] cell line Hela Tet/off was cultured in MEM alpha medium supplemented with 10% fetal calf serum, penicillin and streptomycin (Gibco Grand Island, N.Y.). The day before transfection, cells were plated on 6 cm dishes in a medium containing 2.5% fetal calf serum. On the day of transfection, the cell culture medium was changed to fresh medium (2.5% fetal calf serum).
A stock solution of Astaxanthin was prepared by dissolving synthetic Astaxanthin (Sigma) in 99.6% ethanol. The concentration of Astaxanthin was measured by spectrophotometry, and the absorbance maximum at 474-479 run was used to calculate the concentration, according to the formula: Absmax/210.
The 6XκB-Luc plasmid contains a firefly luciferase reporter gene driven by 6 NF-κB binding sites cloned upstream of a TK promoter (Meyer et al. 1993). […]

In the case of `CC1=C(/C=C/C(C)=C/C=C/C(C)=C/C=C/C=C(C)/C=C/C=C(C)/C=C/C2=C(C)C(=O)[C@@H](O)CC2(C)C)C(C)(C)C[C@H](O)C1=O` [Astaxanthin], the “effect on the activation of NF-κB effected by UV exposure” value (HeLa cells transfected with NF-κB-dependent reporter gene, UV-C, pretreatment 3 hours prior to irradiation (FIG. 1)) is reported as “inhibits the activation of NF-κB effected by UV exposure” and the “repression of UV-C induced activation of NF-κB-dependent reporter gene” value (HeLa cells, 6xκB-Luc reporter, UV-C 10 J/m^2, Astaxanthin pretreatment 3 hours at the highest concentration, luciferase 14-18 hours after exposure) is reported as ~3 fold.
